# Reference: US8173157B2, “Pharmaceutical composition comprising phenylamidine derivative and method of using the pharmaceutical composition in combination with antifungal agent” (Toyama Chemical Co., Ltd., priority 2006, dated 2012)
# Numbered stars: 1 amine (or outer) side, 2 acyl side, 3 side chain; on linkers, the order of the positions; unused ones are H or OH. Bridge positions count the residues as written; N and C are the ends. Square brackets hold non-standard residues; d marks the D form. Peptide text beside a SMILES is read from it. * marks the point of attachment. hTyr(3S-OH,4S-OH,3'-OSO3H) = N[C@H](C(=O)O)[C@H](O)[C@@H](O)c1ccc(O)c(OS(=O)(=O)O)c1; Orn(4R-OH,5R-OH) = O=C([C@H](C[C@@H](O)[C@@H](O)N[*:3])N[*:1])[*:2]; Pro(3S-OH,4S-Me) = C[C@H]1CN[C@H](C(=O)O)[C@H]1O; X1 = CCCCCOc1ccc(-c2cc(-c3ccc(C(=O)*)cc3)no2)cc1; Gln(3R-OH) = NC(=O)C[C@@H](O)[C@H](N)C(=O)O; Hyp = O=C(O)[C@@H]1C[C@@H](O)CN1
# Assays:
# [1] = tested on: Candida albicans TIMM1623; experiment: In vivo test: murine systemic infection caused by Candida albicans; details: ICR mice, day 21 after infection, once daily, 7 times
# Experimental: In vivo activity was evaluated in murine systemic infection caused by Candida albicans.
# (§1) Mice (4-week old (at infection) male ICR mice, 5 mice per group) were intraperitoneally administered 200 mg/kg of cyclophosphamide 4 days before infection and 100 mg/kg on the following day after infection. Candida albicans TIMM1623, which were prepared from overnight culture on a Sabouraud Dextrose Agar plate at 35° C., were suspended in sterile physiological saline solution. After counting cell number of the suspension with a biological microscope, the suspension was diluted with sterile physiological saline solution to give the inoculum solution. Systemic infection was induced in mice by intravenous inoculation of 0.2 mL of the inoculum solution into the tail vein (2.6×10^4 CFU/mouse).
# (§2) The test compound was dissolved in a small amount of 0.1 mol/L hydrochloric acid, and the solution was diluted with sterilized water to prepare predetermined concentrations.
# Fluconazole (a commercial name: FLANOS intravenous drip solution 100 mg, made by Toyama Chemical Co., Ltd.) was diluted with sterilized water to prepare fluconazole solutions of predetermined concentrations.
# Micafungin sodium (a commercial name: Funguard 50 mg for infusion, made by Astellas Pharma Inc.) was dissolved in sterile physiological saline solution to prepare micafungin solutions of predetermined concentrations.
# Amphotericin B for injection (a commercial name: FUNGIZONE, made by Bristol pharmaceutical Ltd.) was dissolved in 5% glucose to prepare an amphotericin B solution of a predetermined concentration.
# The test compound (0.25 and 0.5 mg/kg) and fluconazole (0.25 and 0.5 mg/kg) were orally administered. Micafungin (0.125 and 0.25 mg/kg) and amphotericin B (0.1 mg/kg) were subcutaneously administered. These administrations were conducted once 2 hours after the infection and then once daily for the following 6 days, totaling 7 times.
# On one hand each of the agents was administered singly, on the other hand each of the agents was administered immediately after the test compound was administered.
# The efficacy was evaluated on the basis of the survival rate on day 21 after infection.
# [2] = tested on: Cryptococcus neoformans ATCC90112; experiment: In vivo test: murine systematic infection caused by Cryptococcus neoformans; details: ICR mice, day 21 after infection, once daily, 7 times
# Experimental: In vivo activity was evaluated in murine systematic infection caused by Cryptococcus neoformans.
# as §1, with “Cryptococcus neoformans ATCC90112 cells,” for “Candida albicans TIMM1623,”, “Systematic” for “Systemic”, “injection” for “inoculation”, “(8.5×10^4” for “(2.6×10^4”
# The test compound was dissolved in a small amount of 0.1 mol/L hydrochloric acid, and the solution was diluted with sterilized water to prepare predetermined concentrations. […]
# (§3) On one hand each of the agents was administered singly, on the other hand each of the agents was administered immediately after the test compound was administered. The efficacy was evaluated on the basis of the survival rate on day 21 after infection.
# [3] = tested on: Aspergillus fumigatus IFM46895; details: general statement ("as usual"); cited from earlier work
# [4] = tested on: Aspergillus fumigatus IFM46895; experiment: In vivo test: murine systemic infection caused by Aspergillus fumigatus; details: for Survival rate: ICR mice, day 21 after infection, once daily, 7 times
# Experimental: In vivo activity was evaluated in murine systemic infection caused by Aspergillus fumigatus.
# Mice (4-week old (at infection) male ICR mice, 5 mice per group) were intraperitoneally administered 200 mg/kg of cyclophosphamide 4 days before infection and 100 mg/kg on the following day after infection. Conidia suspension of Aspergillus fumigatus IFM46895 was diluted with sterile physiological saline solution containing 0.05% Tween 80 (manufactured by Difco Laboratories) in sterile physiological saline solution to give the inoculum solution. Systemic infection was induced in mice by intravenous inoculation of 0.2 mL of the inoculum solution into the tail vein (1.6×10^5 CFU/mouse).
# as §2
# Flucytosine (made by Sigma Company) was suspended in 0.5% methyl cellulose liquid to prepare predetermined concentrations for administration.
# Voriconazole (a commercial name: Vfend 200 mg for intravenous use, made by Pfizer Inc.) was diluted with sterilized water to prepare voriconazole solutions of predetermined concentrations for administration.
# The test compound (1 and 3 mg/kg), flucytosine (50 and 250 mg/kg) and voriconazole (5 and 10 mg/kg) were orally administered. The administrations were conducted once 2 hours after the infection and then once daily for the following 6 days, totaling 7 times.
# as §3
# [5] = Toxicity on consecutive oral administration to mice; assay type: in vivo; details: orally administered consecutively at 25 mg/kg for 2 weeks
smiles,measurement,setting,value
"CCCCCOc1ccc(-c2cc(-c3ccc(C(=O)N[C@H]4C[C@@H](O)[C@@H](O)NC(=O)[C@@H]5[C@@H](O)[C@@H](C)CN5C(=O)[C@H]([C@H](O)CC(N)=O)NC(=O)[C@H]([C@H](O)[C@@H](O)c5ccc(O)c(OS(=O)(=O)O)c5)NC(=O)[C@@H]5C[C@@H](O)CN5C(=O)[C@H]([C@@H](C)O)NC4=O)cc3)no2)cc1 [MCFG, micafungin] (X1-[Orn(4R-OH,5R-OH)]T[Hyp][hTyr(3S-OH,4S-OH,3'-OSO3H)][Gln(3R-OH)][Pro(3S-OH,4S-Me)]; lactam 1-C)",Survival rate,[1]; MCFG 0.125 mg/kg subcutaneously,0
same,Survival rate,[1]; MCFG 0.25 mg/kg subcutaneously,40
"OC(Cn1cncn1)(Cn1cncn1)c1ccc(F)cc1F [FLCZ, fluconazole]",Survival rate,[1]; FLCZ 0.25 mg/kg orally,20
same,Survival rate,[1]; FLCZ 0.5 mg/kg orally,40
same,Survival rate,[2]; FLCZ 20 mg/kg orally,20
"Nc1[nH]c(=O)ncc1F [Example 5-FC, flucytosine]",Effect against Aspergillus fumigatus,[3],almost no effect
same,Survival rate,[4]; 5-FC 250 mg/kg orally,0
same,Therapeutic effect,"[4]; murine systemic infection, flucytosine 250 mg/kg administered singly",no therapeutic effect
"CCCCOC(=O)N=C(N)c1ccc(OCCCC2CCN(CCCOc3ccc(C(N)=NC(=O)OCCCC)cc3)CC2)cc1 [Test compound, 4-{3-[4-(3-{4-[amino(butoxycarbonylimino)methyl]phenoxy}propyl)-1-piperidinyl]propoxy}-N′-(butoxycarbonyl)benzamidine]",Toxicity,[5],did not show toxicity at all
same,Survival rate,[1]; test compound 0.5 mg/kg orally,0
same,Survival rate,[2]; test compound 1 mg/kg orally,0
same,Survival rate,[4]; test compound 1 mg/kg orally,0
same,Survival rate,[4]; test compound 3 mg/kg orally,20
"C[C@@H](c1ncncc1F)[C@](O)(Cn1cncn1)c1ccc(F)cc1F [VCZ, voriconazole]",Survival rate,[4]; VCZ 10 mg/kg orally,0
"C[C@@H]1[C@H](O)[C@@H](C)/C=C/C=C/C=C/C=C/C=C/C=C/C=C/[C@H](O[C@@H]2O[C@H](C)[C@@H](O)[C@H](N)[C@@H]2O)C[C@@H]2O[C@](O)(C[C@@H](O)C[C@@H](O)[C@H](O)CC[C@@H](O)C[C@@H](O)CC(=O)O[C@H]1C)C[C@H](O)[C@H]2C(=O)O [AMPH-B, amphotericin B]",Survival rate,[1]; AMPH-B 0.1 mg/kg subcutaneously,20
